Experiments:
Type in all cases: in vivo, swine
gilts [1] = assay: Example 5: ovulation monitored by transrectal ultrasonography after 100, 200 or 400 mcg triptorelin gel intravaginally at 120 h after MATRIX withdrawal; conditions: all treatments
Method: (§1) All gilts were individually fed MATRIX® as a top-dress for 14 or 15 days at the recommended rate of 15 mg/gilt/day. Gilts were withdrawn from MATRIX® feeding (last top-dress in the morning on Day 0) and allocated to each of the following treatments. Controls were vehicle gel treated (vehicle gel without triptorelin) at 120 (+/−2) hours following MATRIX® withdrawal (last top dress). The other gilts were given 100, 200 or 400 mcg triptorelin as the acetate in a methylcellulose gel formulation 120 (+/−2) hours following MATRIX® withdrawal. The four treatments were: • 1. Vehicle gel (VG): vehicle gel without triptorelin at 120 (+/−2) hours after MATRIX® withdrawal. • 2. TG 100: 100 mcg (2 mL 50 mcg/mL) triptorelin gel at 120 (+/−2) hours after MATRIX® withdrawal. • 3. TG 200: 200 mcg (2 mL 100 mcg/mL) triptorelin gel at 120 (+/−2) hours after MATRIX® withdrawal. • 4. TG 400: 400 mcg (2 mL 200 mcg/mL) triptorelin gel at 120 (+/−2) hours after MATRIX® withdrawal.
(§2) Triptorelin (pGlu-His-Trp-Ser-Tyr-D-Trp-Leu-Arg-Pro-Gly-NH2) was supplied in the acetate form, from Bachem, Torrance, Calif. (Item H-4075 CGMP grade). Triptorelin gel (100-400 mcg/2 mL dose) was formulated by Argenta (Auckland, NZ) in a gel composed of Methocel Premium A4000 (Dow Chemical), citrate buffer (pH 5.5), NaCl, methionine, and methyl and propyl parabens. Fifty-four milliliters of triptorelin gel (100 mcg triptorelin acetate/mL) was packaged in Amber Borosilicate Glass Serum Vials (610206-50) with a Gray Butyl Pharmaceutical Serum Vial Stopper (73828A-SS) with a Standard Aluminum Seal (SAS20NAT). […] MATRIX® was supplied as the US commercially available form.
Ovulation was monitored twice on Day 5 (8 hours and 16 hours post-treatment) and every 8 hours on Day 6 and Day 7 or until ovulation was confirmed or 176 hours following last MATRIX® feeding. The ovulatory status of all gilts was monitored by transrectal ultrasonography. An Aloka 500 ultrasound machine is used for this purpose, with a 7.5 MHz linear array transducer attached to a fixed-angle PVC stabilizing rod to facilitate insertion into the rectum. The transducer and PVC rod are coated with a gynecological lubricant and gently inserted into the rectum until the ovaries can be visualized, one at a time. The diameters of the three largest follicles were recorded (to the nearest 0.1 mm) at each scanning. A gilt was declared to have ovulated when the number of large follicles (≧6.5 mm) fell to less than 3.
A single 2 mL dose of triptorelin gel or vehicle gel was deposited within approximately 1-2 cm posterior to the cervix with a catheter similar to those used for artificial insemination. The dose was delivered using a standard multi-dose applicator attached to the catheter. A new disposable sheath, which surrounds the catheter, was used for each gilt.

gilts [2] = assay: Example 2: estrus observation post-MATRIX; conditions: older gilts at the first site, all treatments
Method: Two hundred ninety-seven (297) gilts were fed MATRIX® as a top-dress for 14 days at the recommended rate of 15 mg/gilt/day. The last feeding of MATRIX® was at 5:30 AM (Day 0). Approximately one hundred gilts were allocated to each of the following treatments: • 1. Group 1, Controls (n=100); MATRIX® treated, but not OvuGel™ treated, inseminated daily during estrus, as is normally practiced (average of 1.9 inseminations per gilt). • 2. Group 2 (n=98); OvuGel™ treated at 6:30 am (+/−1 hr) on Day 5 and inseminated at 2 to 11 hours post-OvuGel™ treatment on Day 5 if expressing estrus. All gilts inseminated once on Day 6, 26 hours (+/−2.5 hrs) post-OvuGel™ treatment, regardless of estrus status. • 3. Group 3 (n=99); OvuGel™ treated at 6:30 am (+/−1 hr) on Day 5 and inseminated once at 2.5 to 9.5 hours post-OvuGel™ treatment on Day 5 and again on Day 6, 26.5 hours (+/−3 hrs) post-OvuGel™ treatment, without regard to estrus on either day.
(§3) Gilts were housed in individual pens. Boars were housed at least 12 m away and downwind. […] To facilitate detection of estrus, a mature boar was walked slowly in the alley in front of the gilt's pen, exposing each gilt to visual, auditory and olfactory signals from the boar for up to 5 minutes. […]

gilts [3] = assay: Example 3: estrus observation post-MATRIX; conditions: younger gilts at the second site, all treatments
Method: Three hundred twelve (312) gilts were fed MATRIX® as a top-dress for 14 days at the recommended rate of 15 mg/gilt/day. The last feeding of MATRIX® was at 6:30 AM (Day 0). One hundred four gilts were allocated to each of the following treatments: • 1. Group 1, Controls (n=104); MATRIX® treated, but not OvuGel™ treated, inseminated daily during estrus, as is normally practiced at the site (average of 1.8 inseminations per gilt). • 2. Group 2 (n=104); OvuGel™ treated at 7:00 am (+/−1.5 hours) on Day 5 and inseminated at 2 to 4 hours post-OvuGel™ treatment on Day 5 if expressing estrus. All gilts inseminated once on Day 6, 26 hours (+/−2 hrs) post-OvuGel™ treatment, regardless of estrus status. • 3. Group 3 (n=104); OvuGel™ treated at 7:00 am (+/−1.5 hours) on Day 5 and inseminated once at 2 to 4 hours post-OvuGel™ treatment on Day 5 and again on Day 6, 26 hours (+/−2 hrs) post-OvuGel™ treatment, without regard to estrus on either day.
as §3

gilts [4] = assay: Example 5: estrus observation after triptorelin gel dose groups; conditions: all treatments (did not differ among treatments)
Method: as §1, §2
For post-treatment estrus detection, gilts were housed in individual pens. Boars were housed in separate rooms, and/or at least 12 m away and downwind. To elicit signs of estrus, a mature boar was walked slowly in the alley in front of the gilts' crates, exposing each test gilt to visual, auditory and olfactory signals from the boar for up to 5 minutes. In keeping with standard practice at commercial farms, while the boar was near the front of the gilt's crate, estrus was tested by an experienced person applying back pressure to the midsection of the gilt combined with side rubbing. Estrus was confirmed when a gilt stood rigidly to the back pressure, with no vocalization and with some indication of an ear reflex. Gilts were not exposed to boars during the first three days after withdrawal of MATRIX® (Day 0 to Day 2). Estrus detection was performed daily on all gilts from Day 3 to Day 7.
A single 2 mL dose of triptorelin gel or vehicle gel was deposited within approximately 1-2 cm posterior to the cervix with a catheter similar to those used for artificial insemination. The dose was delivered using a standard multi-dose applicator attached to the catheter. […]

Structure (SMILES): C=CC[C@]1(O)CC[C@H]2[C@@H]3CCC4=CC(=O)CCC4=C3C=C[C@@]21C [MATRIX®, altrenogest]
- gilts ovulated within the experimental period, overall (gilts [1]): 94%
- gilts that first expressed estrus on Day 5 post-MATRIX, average (gilts [2]): 30.1%
- gilts that showed estrus on Day 5 (gilts [3]): 7.4%
- interval from last feeding of MATRIX to estrus (gilts [4]): 146 ± 22 h
- percentage of gilts which expressed estrus after the last feeding of MATRIX (gilts [4]): 97%

Source: patent publication US9724380B2, “Method and compositions for synchronizing time of insemination in gilts” (JBS UNITED ANIMAL HEALTH II LLC, priority 2012, dated 2017)
